The values below come from patent US20020099073A1, “Modulators of protein tyrosine phosphatases (PTPases)” (priority 2000, published 2002).

What is called Ki is a dissociation constant, usually derived from enzyme kinetics or from competition with a known ligand. Read a low Ki as a stronger hold on the target.

This assay addresses T1, truncated form of PTP1B (corresponding to the first 321 amino acids) (Homo sapiens, UniProt P18031).
T1 construct: truncated form of PTP1B (corresponding to the first 321 amino acids); made in house; host or cells: E. coli
T1 sequence (P18031 1-321): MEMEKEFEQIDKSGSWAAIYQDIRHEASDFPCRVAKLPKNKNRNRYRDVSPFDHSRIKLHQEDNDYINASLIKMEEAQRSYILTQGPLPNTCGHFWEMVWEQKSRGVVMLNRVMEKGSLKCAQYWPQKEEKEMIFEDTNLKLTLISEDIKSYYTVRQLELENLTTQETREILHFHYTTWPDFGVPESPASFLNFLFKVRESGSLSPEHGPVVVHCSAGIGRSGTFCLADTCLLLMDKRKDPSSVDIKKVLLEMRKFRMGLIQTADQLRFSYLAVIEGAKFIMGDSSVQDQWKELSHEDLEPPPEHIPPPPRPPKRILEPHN
In words: Inhibition of PTP1B, p-nitrophenyl phosphate substrate. It is filed as biochemical. Conditions: substrate p-nitrophenyl phosphate 0.16 to 10 mM; 100 mM sodium acetate pH 5.5; 25° C. for 60 minutes; absorbance at 405 nm. As to the method:
The compounds are evaluated for biological activity with a truncated form of PTP1B (corresponding to the first 321 amino acids), which was expressed in E. coli and purified to apparent homogeneity using published procedures well-known to those skilled in the art. The enzyme reactions are carried out using standard conditions essentially as described by Burke et al. (Biochemistry 35; 15989-15996 (1996)). The assay conditions are as follows. Appropriate concentrations of the compounds of the invention are added to the reaction mixtures containing different concentrations of the substrate, p-nitrophenyl phosphate (range: 0.16 to 10 mM—final assay concentration). The buffer used was 100 mM sodium acetate pH 5.5, 50 mM sodium chloride, 0.1% (w/v) bovine serum albumin and 5 mM dithiothreitol (total volume […]). The reaction was started by addition of the enzyme and carried out in microtiter plates at 25° C. for 60 minutes. The reactions are stopped by addition of NaOH. The enzyme activity was determined by measurement of the absorbance at 405 nm with appropriate corrections for absorbance at 405 nm of the compounds and p-nitrophenyl phosphate. The data are analyzed using nonlinear regression fit to classical Michaelis Menten enzyme kinetic models. Inhibition is expressed as Ki values in μM.
Consider `O=C(O)C(=O)Nc1sc2c(c1C(=O)O)C[C@@H](CNC(=O)c1cccc(Oc3ccccc3)c1)NC2` [Example 20, 2-(Oxalyl-amino)-5-(S)-((3-phenoxy-benzoylamino)methyl)-4,5,6,7-tetrahydro-thieno[2,3-c]pyridine-3-carboxylic Acid], for which the affinity corresponds to a Ki of 0.27 µM.
For the molecule `COc1ccc(CN2Cc3sc(NC(=O)C(=O)O)c(C(=O)O)c3CC2CNC(=O)c2cc(-c3ccc(C)cc3)nc3ccc(Br)cc23)cc1` (centres unmarked) [Example 2, 5-(((6-Bromo-2-p-tolyl-quinoline-4-carbonyl)amino)methyl)-6-(4-methoxy-benzyl)-2-(oxalyl-amino)-4,5,6,7-tetrahydro-thieno[2,3-c]pyridine-3-carboxylic Acid], the affinity corresponds to a Ki of 100 µM.
`CC(=O)Nc1ccc(S(=O)(=O)NC[C@@H]2Cc3c(sc(NC(=O)C(=O)O)c3C(=O)O)CN2)cc1` [Example 29, 5-(S)-((4-Acetylamino-benzenesulfonylamino)methyl)-2-(oxalyl-amino)-4,5,6,7-tetrahydro-thieno[2,3-c]pyridine-3-carboxylic Acid] yielded a Ki of 0.13 µM.
`Cc1nn(-c2ccccc2)nc1C(=O)NCC1Cc2c(sc(NC(=O)C(=O)O)c2C(=O)O)CN1` (centres unmarked) [Example 11, 5-(((5-Methyl-2-phenyl-2H-[1,2,3]triazole-4-carbonyl)amino]methyl)-2-(oxalyl-amino)-4,5,6,7-tetrahydro-thieno[2,3-c]pyridin-3-carboxylic Acid] registered a Ki of 1.5 µM.
`O=C(O)C(=O)Nc1sc2c(c1C(=O)O)CC(CNC(=O)c1ccc(NC(=O)c3ccccc3)cc1)NC2` (centres unmarked) [Example 5, 5-((4-Benzoylamino-benzoylamino)methyl)-2-(oxalyl-amino)-4,5,6,7-tetrahydro-thieno[2,3-c]pyridine-3-carboxylic Acid] displayed a Ki of 0.25 µM.
In the case of `COc1ccc(CN2Cc3sc(NC(=O)C(=O)O)c(C(=O)O)c3CC2CNC(=O)c2ccc(NC(=O)c3ccccc3)cc2)cc1` (centres unmarked) [Example 4], affinity was put at a Ki of 3 µM.
As to `CCOc1ccc(C(=O)NCC2Cc3c(sc(NC(=O)C(=O)O)c3C(=O)O)CN2)c(O)c1` (centres unmarked) [Example 10, 5-((4-Ethoxy-2-hydroxy-benzoylamino)methyl)-2-(oxalyl-amino)-4,5,6,7-tetrahydro-thieno[2,3-c]pyridine-3-carboxylic Acid], affinity was put at a Ki of 0.34 µM.
For the molecule “5-(Benzyloxycarbonylamino-methyl)-2-(oxalyl-amino)-4,5,6,7-tetrahydro-thieno[2,3-c]pyridine-3-carboxylic acid and 7-(benzyloxycarbonylamino-methyl)-2-(oxalyl-amino)-4,5,6,7-tetrahydro-thieno[2,3-c]pyridine-3-carboxylic Acid [Example 17]”, the affinity, expressed as Ki, was 1.5 µM. This Ki lies about 4.4-fold higher than the previous one.
`O=C(O)C(=O)Nc1sc2c(c1C(=O)O)C[C@@H](CNC(=O)c1ccc3ccccc3c1O)NC2` [Example 23, 5-(S)-(((1-Hydroxy-naphthalene-2-carbonyl)amino)methyl)-2-(oxalyl-amino)-4,5,6,7-tetrahydro-thieno[2,3-c]pyridine-3-carboxylic Acid]: the affinity, expressed as Ki, was 0.15 µM.
`CC(=O)Nc1ccc(S(=O)(=O)NC[C@H]2Cc3c(sc(NC(=O)C(=O)O)c3C(=O)O)CN2)cc1` [Example 28, 5-(R)-((4-Acetylamino-benzenesulfonylamino)methyl)-2-(oxalyl-amino)-4,5,6,7-tetrahydro-thieno[2,3-c]pyridine-3-carboxylic Acid]: the affinity, expressed as Ki, was 3.5 µM.
Turning to `O=C(O)C(=O)Nc1sc2c(c1C(=O)O)C[C@H](CNC(=O)c1ccc(NC(=O)c3ccccc3)cc1)NC2` [Example 22, 5-(R)-((4-Benzoylamino-benzoylamino)methyl)-2-(oxalyl-amino)-4,5,6,7-tetrahydro-thieno[2,3-c]pyridine-3-carboxylic Acid], the affinity corresponds to a Ki of 3.2 µM.
With `O=C(O)C(=O)Nc1sc2c(c1C(=O)O)C[C@@H](CNC(=O)c1cc3ccccc3cc1O)NC2` [Example 24, 5-(S)-(((3-Hydroxy-naphthalene-2-carbonyl)amino)methyl)-2-(oxalyl-amino) 4,5,6,7-tetrahydro-thieno[2,3-c]pyridine-3-carboxylic Acid] the figure was 0.22 µM; with `O=C(O)C(=O)Nc1sc2c(c1C(=O)O)CC(CNC(=O)c1cc3ccccc3[nH]1)NC2` (centres unmarked) [Example 14], 0.67 µM; with `COc1ccc(CN2Cc3sc(NC(=O)C(=O)O)c(C(=O)O)c3CC2CNC(=O)c2cccc3ccccc23)cc1` (centres unmarked) [Example 16, 6-(4-Methoxybenzyl)-5-(((naphthalene-1-carbonyl)amino)methyl)-2-(oxalyl-amino)-4,5,6,7-tetrahydro-thieno[2,3-c]pyridine-3-carboxylic Acid], 20 µM.
`O=C(O)C(=O)Nc1sc2c(c1C(=O)O)C[C@@H](CNC(=O)c1ccc(NC(=O)c3ccccc3)cc1)NC2` [Example 21, 5-((4-Benzoylamino-benzoylamino)methyl)-2-(oxalyl-amino)-4,5,6,7-tetrahydro-thieno[2,3-c]pyridine-3-carboxylic Acid] returned a Ki of 0.16 µM. This Ki is about 120-fold lower than that of the molecule before.
With `O=C(NC[C@@H]1Cc2c(sc(NC(=O)C(=O)O)c2C(=O)O)CN1)Nc1ccc(Oc2ccccc2)cc1` [Example 27, 2-(Oxalyl-amino)-5-(S)-(3-(4-phenoxy-phenyl)ureidomethyl)-4,5,6,7-tetrahydro-thieno[2,3-c]pyridin-3-carboxylic Acid] the figure was 0.2 µM; with `O=C(O)C(=O)Nc1sc2c(c1C(=O)O)CC(CNC(=O)c1ccccc1O)NC2` (centres unmarked) [Example 18, 5-((2-Hydroxy-benzoylamino)-methyl)-2-(oxalyl-amino)-4,5,6,7-tetrahydro-thieno[2,3-c]pyridine-3-carboxylic Acid], 0.68 µM; with `COc1ccc(CN2Cc3sc(NC(=O)C(=O)O)c(C(=O)O)c3CC2CNC(=O)c2cc3cc(OCc4ccccc4)ccc3[nH]2)cc1` (centres unmarked) [Example 3, 5-(((5-Benzyloxy-1H-indole-2-carbonyl)amino)methyl)-6-(4-methoxy-benzyl)-2-(oxalyl-amino)-4,5,6,7-tetrahydro-thieno[2,3-c]pyridine-3-carboxylic Acid], 4.3 µM.
Regarding `O=C(O)C(=O)Nc1sc2c(c1C(=O)O)CC(CNC(=O)c1cccc(O)c1)NC2` (centres unmarked) [Example 19, 5-((3-Hydroxy-benzoylamino)methyl)-2-(oxalyl-amino)-4,5,6,7-tetrahydro-thieno[2,3-c]Pyridine-3-carboxylic Acid], the Ki was 0.95 µM.
As for `COc1ccc(CN2Cc3sc(NC(=O)C(=O)O)c(C(=O)O)c3CC2CNC(=O)c2nn(-c3ccccc3)nc2C)cc1` (centres unmarked) [Example 6, 6-(4-Methoxy-benzyl)-5-(((5-methyl-2-phenyl-2H-[1,2,3]triazole-4-carbonyl)-amino)methyl)-2-(oxalyl-amino)-4,5,6,7-tetrahydro-thieno[2,3-c]pyridine-3-carboxylic Acid], the affinity, expressed as Ki, was 20 µM.
Molecule `COc1ccc2cc(O)c(C(=O)NC[C@@H]3Cc4c(sc(NC(=O)C(=O)O)c4C(=O)O)CN3)cc2c1` [Example 25, 5-(S)-(((3-Hydroxy-7-methoxy-naphthalene-2-carbonyl)amino)methyl)-2-(oxalyl-amino)-4,5,6,7-tetrahydro-thieno[2,3-c]pyridine-3-carboxylic Acid] yielded a Ki of 0.21 µM.
`O=C(O)C(=O)Nc1sc2c(c1C(=O)O)CC(CNC(=O)c1ccc(-c3ccccc3)cc1)NC2` (centres unmarked) [Example 9, 5-(((Biphenyl-4-carbonyl)amino)methyl)-2-(oxalyl-amino)-4,5,6,7-tetrahydro-thieno[2,3-c]pyridine-3-carboxylic Acid] showed a Ki of 0.22 µM.
With `O=C(O)C(=O)Nc1sc2c(c1C(=O)O)CC(CNC(=O)c1ccccc1)NC2` (centres unmarked) [Example 1, 5-(Benzoylamino-methyl)-2-(oxalyl-amino)-4,5,6,7-tetrahydro-thieno[2,3-c]Pyridine-3-carboxylic Acid] the figure was 0.52 µM.
